ChEMBL document CHEMBL1127587, “Modeling the anticarcinogenic action of retinoids by making use of the OASIS method. 3. Inhibition of the induction of ornithine decarboxylase by arotinoids” (J Med Chem, 1994)

Test: Tested for experimental arotinoid inhibitory dose

Row | SMILES | -Log ID50
1 | C/C(=C\c1ccc(C(=O)O)cc1)c1ccc2c(c1)C(C)(C)CCS2 | 9.3
2 | C/C(=C\c1ccc(C(=O)O)cc1)c1ccc2c(c1)C1CCC2C1 (stereo not given) | 8.51
3 | C/C(=C\c1ccc2c(c1)C(C)(C)CCS2)c1ccc(C(=O)O)cc1 | 9.22
4 | COc1ccc(/C(C)=C/c2ccc(C(=O)O)cc2)cc1C(C)(C)C | 9.4
5 | C/C(=C\c1ccc(C(=O)O)cc1)c1ccc(SCCC(C)C)cc1 | 6.77
6 | C/C(=C\c1ccc(C(=O)O)cc1)c1ccc2c(C)c(C)c(C)c(C)c2c1 | 8.8
7 | C/C(=C\c1ccc(C(=O)O)cc1)c1ccc2c(c1)SCCC2(C)C | 9.22
8 | C/C(=C\c1ccc(C(=O)O)cc1)c1ccc2ccc(C)c(C)c2c1 | 6.7
9 | C/C(=C\c1ccc(C(=O)O)cc1)c1cc2c(s1)CCCC2(C)C | 10

Results, then the compound that gave them:

Row | -Log ID50 | SMILES
10 | 8.57 | C/C(=C\c1ccc(C(=O)O)cc1)c1ccc2c(c1)C(C)(C)CCO2
11 | 10.52 | C/C(=C\c1ccc(C(=O)O)cc1)c1ccc2c(c1)C(C)(C)CCC2(C)C
12 | 10.52 | C/C(=C\c1ccc2c(c1)C(C)(C)CCC2(C)C)c1ccc(C(=O)O)cc1
13 | 9.22 | C/C(=C\c1ccc(C(=O)O)cc1)c1ccc2c(c1)CCCC2(C)C
14 | 9.22 | C/C(=C(/F)c1ccc(C(=O)O)cc1)c1cc2c(s1)CCCC2(C)C
15 | 10.1 | C/C(=C(/F)c1ccc(C(=O)O)cc1)c1ccc2c(c1)C(C)(C)CCC2(C)C
16 | 10.22 | C/C(=C\c1ccc(C(=O)O)cc1)c1ccc2c(c1)C(C)(C)CC[C@H]2C
17 | 10.15 | CC1(C)CCC(C)(C)c2cc3cc(-c4ccc(C(=O)O)cc4)ccc3cc21
18 | 10.15 | C/C(=C\c1ccc(C(=O)O)cc1)c1ccc2c(c1)C(C)(C)CCC2C (stereo not given)
19 | 10.3 | C/C(=C\c1ccc(C(=O)O)cc1)c1ccc2c(c1)C(C)(C)CC[C@@H]2C
20 | 8.96 | C/C(=C\c1ccc(C(=O)O)cc1)c1ccc2c(c1)C(C)(C)CCC2
